Source: patent publication US20080161367A1, “Insecticidal Mixtures” (BASF Aktiengesellschaft, priority 2005, published 2008)

Assays:
[1] = system: Western corn rootworm larvae (Diabrotica virgifera virgifera); test: Seed treatment of field corn seeds, Western corn rootworm larval mortality; format: in vivo; conditions: corn seed treatment at the rate printed in the row (fipronil 0.005, clothianidin 0.05 g a.i./100 kg seed); 2nd instar larvae; mortality 1 day after infestation, adjusted for untreated controls
Description: (§1) Each mixture partner has been evaluated separately at the same rates as used in the mixtures. Synergism was determined by comparing the expected biological effect on plant health or on disease control from the mixture based on the individual effects from the separate partners to the biological effect observed with the mixture. Abbott's formula has be used to make this comparison.
Field corn seeds (Zea mays) were treated with a mixture of commercially available fipronil SC formulation (REGENT® 4 SC—479 g a.i./L) at rates of 0.005 g ai/100 kg seed with commercially available clothianidin formulation (PONCHO® 600—600 g a.i./L) at 0.05 g ai/100 kg seed. In addition, there was a treatment with each mixture partner at its respective solo rate. The carrier for all treatments was water. The respective formulation(s) and water were mixed in a 20 ml vial. Then 25 seeds were added, and the vial was vortexed. After treatment, seeds were allowed to dry. […] Petri plates were incubated at 26° C., and insect mortality was evaluated 1 day later. Percent mortalities were calculated adjusting for any mortality in the untreated controls.
The expected percent mortality for the mixture was calculated based on the percent mortalities observed when each mixture partner was applied solo at the rate it was applied in the mixture using Abbott's formula as follows: […]

[2] = system: Colorado potato beetle larvae (Leptinotarsa decemlineata); test: Foliar insecticidal activity on eggplant, Colorado potato beetle feeding damage; format: in vivo; conditions: foliar spray on eggplant at 0.05 ppm each; 2nd instar larvae; evaluated 3 days later, relative to untreated controls
Description: as §1
The foliage of eggplant plants (Solanum melongena, variety Black Beauty) at the 4th to 5th true-leaf stage was treated with a mixture of commercially available fipronil SC formulation (REGENT® 4 SC, 479 g a.i./L-) at 0.05 ppm with commercially available clothianidin formulation (PONCHO® 600, 600 g a.i./L) at 0.05 ppm. In addition, there was a treatment with each mixture partner at its respective solo rate. Treatment was by spraying the leaves to near run-off. The carrier for all treatments was water. Two leaves on each of three plants were sprayed per treatment. […] Insect feeding damage to the foliage was evaluated 3 days later. Percent reductions in insect feeding damage were calculated based on the untreated controls.
The expected reduction in feeding damage for the mixture was calculated based on the percent reductions observed when each mixture partner was applied solo at the rate it was applied in the mixture using Abbott's formula as follows: […]

SMILES | Actual Mixture Response [% Larval Mortality] [1] [%] | Actual Mixture Response [% Reduction in Insect Feeding Injury] [2] [%]
N#Cc1nn(-c2c(Cl)cc(C(F)(F)F)cc2Cl)c(N)c1[S+]([O-])C(F)(F)F (stereo not shown) [Fipronil, fipronil] | 0 | 0
CN/C(=N\[N+](=O)[O-])NCc1cnc(Cl)s1 [Clothianidin, clothianidin] | 14 | 21
